Activity calls are given as the source filed them. The rule behind the calls is not given here.
Key:
c-Myc/Max (Homo sapiens) [1] = molecular target: T1, c-Myc/Max (Homo sapiens) (UniProt P01106+P61244); test: Inhibition of dimerization of human MYC bHLH-LZ domain/MAX bHLH-LZ domain expressed in Escherichia coli in presence of Alexa Fluor 594-tagged E-box duplex DNA by fluorescence polarization assay
[2] = molecular target: Myc proto-oncogene protein (Homo sapiens) (UniProt P01106); test: Inhibition of human ATG-Myc expressed in chicken embryo fibroblasts assessed as reduction in Myc-induced oncogenic transformation by measuring efficiency of oncogenic transformation at 10 uM
Myc proto-oncogene protein (Homo sapiens), sequence (P01106 whole entry): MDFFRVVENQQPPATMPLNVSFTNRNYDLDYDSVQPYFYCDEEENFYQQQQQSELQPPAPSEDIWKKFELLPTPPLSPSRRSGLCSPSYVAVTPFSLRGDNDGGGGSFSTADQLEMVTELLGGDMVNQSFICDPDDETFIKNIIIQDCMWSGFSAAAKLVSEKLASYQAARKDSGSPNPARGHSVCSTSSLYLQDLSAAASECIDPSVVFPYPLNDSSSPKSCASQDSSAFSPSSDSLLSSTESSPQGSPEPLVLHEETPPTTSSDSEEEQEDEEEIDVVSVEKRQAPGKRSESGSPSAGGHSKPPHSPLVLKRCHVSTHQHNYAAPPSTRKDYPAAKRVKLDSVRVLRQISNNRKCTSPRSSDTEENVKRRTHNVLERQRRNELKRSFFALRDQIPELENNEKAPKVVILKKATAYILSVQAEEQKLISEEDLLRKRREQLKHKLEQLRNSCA

[3] = molecular target: Myc proto-oncogene protein (Homo sapiens) (UniProt P01106); test: Inhibition of human ATG-Myc expressed in chicken embryo fibroblasts assessed as reduction in Myc-induced oncogenic transformation by measuring efficiency of oncogenic transformation
c-Myc/Max (Homo sapiens) [4] = molecular target: T1, c-Myc/Max (Homo sapiens); test: Inhibition of MYC/MAX dimerization in human MDA-MB-231 cells assessed as reduction in Myc expression at 20 uM incubated for 24 hrs by Western blot analysis; type: cell-based
c-Myc/Max (Homo sapiens) [5] = molecular target: T1, c-Myc/Max (Homo sapiens); test: Inhibition of MYC/MAX dimerization in human MDA-MB-231 cells assessed as increase in NDRG1 expression at 20 uM incubated for 24 hrs by Western blot analysis; type: cell-based
HL-60 = test: Antiproliferative activity against human HL60 cells assessed as inhibition of cell proliferation at 25 uM incubated for 3 days by Cell-titer 96 Non-radioactive cell proliferation assay; type: functional, cell-based
MOLT-4 = test: Antiproliferative activity against human MOLT4 cells assessed as inhibition of cell proliferation at 25 uM incubated for 3 days by Cell-titer 96 Non-radioactive cell proliferation assay; type: functional, cell-based
Homo sapiens [6] = organism: Homo sapiens; test: Antiproliferative activity against human Akata cells assessed as inhibition of cell proliferation at 2.5 to 10 uM incubated for 72 hrs by resazurin dye based assay; type: functional
Cotesia glomerata [7] = test: Antiproliferative activity against methylcholanthrene-transformed primary quail embryo fibroblasts assessed as inhibition of cell proliferation at 50 uM incubated for 3 days by Cell-titer 96 Non-radioactive cell proliferation assay; type: functional
Cotesia glomerata [8] = test: Antiproliferative activity against v-myc-transformed primary QEF/MC29 cells assessed as inhibition of cell proliferation at 50 uM incubated for 3 days by Cell-titer 96 Non-radioactive cell proliferation assay; type: functional
[9] = Toxicity in nude mouse xenografted with human MDA-MB-231 cells assessed as effect on body weight at 10 mg/kg, ip dosed daily for 31 days; type: organism-based; conditions: in vivo, 744 h
Homo sapiens [10] = organism: Homo sapiens; test: Inhibition of PI3K H1047R mutant (unknown origin) expressed in chicken embryo fibroblasts assessed as reduction in Myc-induced oncogenic transformation by measuring efficiency of oncogenic transformation up to 20 uM
NCI-H460 = test: Antiproliferative activity against human NCI-H460 cells assessed as inhibition of cell proliferation at 10 to 40 uM incubated for 3 days by Cell-titer 96 Non-radioactive cell proliferation assay; type: functional, cell-based
Mus musculus [11] = test: Inhibition of Myc in nude mouse xenografted with human MDA-MB-231 cells assessed as increase in NDRG1 expression at 10 mg/kg, ip dosed daily for 31 days by immunofluorescent staining; type: functional, organism-based
Rous sarcoma virus = test: Inhibition of Rous sarcoma virus v-SRC expressed in chicken embryo fibroblasts assessed as reduction in Myc-induced oncogenic transformation by measuring efficiency of oncogenic transformation up to 20 uM
MDA-MB-231 [12] = test: Antiproliferative activity against human MDA-MB-231 cells assessed as inhibition of cell proliferation at 10 to 40 uM incubated for 3 days by Cell-titer 96 Non-radioactive cell proliferation assay; type: functional, cell-based
K562 = test: Antiproliferative activity against human K562 cells assessed as inhibition of cell proliferation at 25 uM incubated for 3 days by Cell-titer 96 Non-radioactive cell proliferation assay; type: functional, cell-based
[13] = Antiproliferative activity against HSF assessed as inhibition of cell proliferation at 50 uM incubated for 3 days by Cell-titer 96 Non-radioactive cell proliferation assay; conditions: human, 72 h
SW480 = test: Antiproliferative activity against human SW480 cells assessed as inhibition of cell proliferation at 50 uM incubated for 3 days by Cell-titer 96 Non-radioactive cell proliferation assay; type: functional, cell-based
[14] = Acute toxicity in rat at 10 mg/kg; type: organism-based; conditions: in vivo
Avian sarcoma virus 17 = test: Inhibition of Avian sarcoma virus 17 v-Jun expressed in chicken embryo fibroblasts assessed as reduction in Myc-induced oncogenic transformation by measuring efficiency of oncogenic transformation up to 20 uM
MDA-MB-231 [15] = test: Antitumor activity against human MDA-MB-231 cells xenografted in nude mouse assessed as reduction tumor weight at 10 mg/kg, ip dosed daily for 31 days; type: functional, organism-based
MDA-MB-231 [16] = test: Effect on Myc expression in human MDA-MB-231 cells at 20 uM incubated for 24 hrs by Western blot analysis; type: functional, cell-based
Raji = test: Antiproliferative activity against human Raji cells assessed as inhibition of cell proliferation at 2.5 to 10 uM incubated for 72 hrs by resazurin dye based assay; type: functional
Ramos = test: Antiproliferative activity against human Ramos cells assessed as inhibition of cell proliferation at 2.5 to 10 uM incubated for 72 hrs by resazurin dye based assay; type: functional
[17] = molecular target: Myc proto-oncogene protein (Homo sapiens) (UniProt P01106); conditions: MDA-MB-231, 20 uM
Description: Inhibition of Myc in human MDA-MB-231 cells assessed as increase in NDRG1 expression at 20 uM incubated for 24 hrs by Western blot analysis

SUM-159-PT = test: Antiproliferative activity against human SUM159PT cells assessed as inhibition of cell proliferation at 10 to 40 uM incubated for 3 days by Cell-titer 96 Non-radioactive cell proliferation assay; type: functional, cell-based
MDA-MB-231 [18] = test: Antitumor activity against human MDA-MB-231 cells xenografted in nude mouse assessed as reduction tumor volume at 10 mg/kg, ip dosed daily for 31 days; type: functional, organism-based
Mus musculus [19] = test: Inhibition of Myc in nude mouse xenografted with human MDA-MB-231 cells assessed as increase in NDRG1 expression at 10 mg/kg, ip dosed daily for 31 days by Western blot analysis; type: functional, organism-based
[20] = Acute toxicity in mouse at 10 mg/kg; type: organism-based; conditions: in vivo

## NC(=O)c1ccc(-c2cc(-c3ccc([N+](=O)[O-])cc3)nc(-c3ccccn3)c2)cc1
c-Myc/Max (Homo sapiens) [1]
  inhibition: inactive
[2]
  inhibition: inactive

## NC(=O)c1ccc(-c2cc(-c3ccc(C(F)(F)F)cc3)nc(-c3ccco3)c2)cc1
c-Myc/Max (Homo sapiens) [1]
  inhibition: Active
[2]
  inhibition: Active

## CS(=O)(=O)c1ccc(-c2cc(-c3ccc(C(N)=O)cc3)cc(-c3ccco3)n2)cc1
c-Myc/Max (Homo sapiens) [1]
  inhibition: inactive
[2]
  inhibition: inactive

## NC(=O)c1ccc(-c2cc(-c3ccc([N+](=O)[O-])cc3)nc(-c3cccc(Br)n3)c2)cc1
c-Myc/Max (Homo sapiens) [1]
  inhibition: inactive
[2]
  inhibition: inactive

## NC(=O)c1ccc(-c2cc(-c3ccc(SC(F)(F)F)cc3)nc(-c3ccco3)c2)cc1
c-Myc/Max (Homo sapiens) [1]
  inhibition: inactive
[2]
  inhibition: inactive

## NC(=O)c1ccc(-c2cc(-c3ccc([N+](=O)[O-])cc3)nc(-c3ccco3)c2)o1
c-Myc/Max (Homo sapiens) [1]
  inhibition: Active
[2]
  inhibition: Active

## NC(=O)c1ccc(-c2cc(-c3ccc(Br)cc3)nc(-c3ccc([N+](=O)[O-])cc3)c2)cc1
c-Myc/Max (Homo sapiens) [1]
  inhibition: inactive
[2]
  inhibition: inactive

## NC(=O)c1ccc(-c2cc(-c3ccc([N+](=O)[O-])cc3)nc(-c3ccc(Br)cn3)c2)cc1
c-Myc/Max (Homo sapiens) [1]
  inhibition: inactive
[2]
  inhibition: inactive

## NC(=O)c1ccc(-c2cc(-c3ccc(OC(F)(F)F)cc3)nc(-c3ccco3)c2)cc1
c-Myc/Max (Homo sapiens) [1]
  inhibition: Active
[2]
  inhibition: Active

## NC(=O)c1ccc(-c2cc(-c3ccc(S(N)(=O)=O)cc3)nc(-c3ccco3)c2)cc1
c-Myc/Max (Homo sapiens) [1]
  inhibition: Active

## COC(=O)c1ccc(-c2cc(-c3ccc(C(N)=O)cc3)cc(-c3ccco3)n2)cc1
c-Myc/Max (Homo sapiens) [1]
  inhibition: inactive
[2]
  inhibition: inactive

## NC(=O)c1ccc(-c2cc(-c3ccncc3)nc(-c3ccc([N+](=O)[O-])cc3)c2)cc1
c-Myc/Max (Homo sapiens) [1]
  inhibition: Active
[2]
  inhibition: 100%

## COC(=O)c1cccc(-c2cc(-c3ccc(C(N)=O)cc3)cc(-c3ccco3)n2)c1
[3]
  inhibition: Active
c-Myc/Max (Homo sapiens) [1]
  inhibition: Active
[2]
  inhibition: 100%

## N#Cc1ccc(-c2cc(-c3ccc(C(N)=O)cc3)cc(-c3ccco3)n2)cc1
[3]
  inhibition: Active
c-Myc/Max (Homo sapiens) [1]
  inhibition: Active
[2]
  inhibition: 100%

## CCc1ccc(/C=C2/SC(=S)NC2=O)cc1
c-Myc/Max (Homo sapiens) [4]
  inhibition: Active
c-Myc/Max (Homo sapiens) [5]
  inhibition: Active

## CN1CCN(c2ccc(-c3cc(-c4ccc(C(N)=O)cc4)cc(-c4ccc([N+](=O)[O-])cc4)n3)cc2)CC1
[3]
  inhibition: Active
c-Myc/Max (Homo sapiens) [1]
  inhibition: inactive

## NC(=O)c1ccc(-c2cc(-c3ccc([N+](=O)[O-])cc3)nc(-c3ccccc3Br)c2)cc1
c-Myc/Max (Homo sapiens) [1]
  inhibition: inactive
[2]
  inhibition: inactive

## NC(=O)c1ccc(-c2cc(-c3ccc([N+](=O)[O-])cc3)nc(-c3ccco3)c2)cc1
HL-60
  Activity: Active
MOLT-4
  Activity: Active
Homo sapiens [6]
  Activity: Active
Cotesia glomerata [7]
  Activity: Active
Cotesia glomerata [8]
  Activity: Active
[9]
  Activity: Non-Toxic
Homo sapiens [10]
  inhibition: Active
NCI-H460
  Activity: Active
Mus musculus [11]
  inhibition: Active
[3]
  inhibition: Dose-dependent effect
Rous sarcoma virus
  inhibition: inactive
MDA-MB-231 [12]
  Activity: Active
c-Myc/Max (Homo sapiens) [1]
  inhibition: Active
K562
  Activity: Active
[13]
  Activity: Non-Toxic
SW480
  Activity: inactive
[14]
  Activity: Non-Toxic
Avian sarcoma virus 17
  inhibition: Active
MDA-MB-231 [15]
  Activity: Active
MDA-MB-231 [16]
  Activity: inactive
Raji
  Activity: Active
Ramos
  Activity: Active
[17]
  inhibition: Active
SUM-159-PT
  Activity: Active
MDA-MB-231 [18]
  Activity: Active
Mus musculus [19]
  inhibition: Active
[2]
  inhibition: 100%
[20]
  Activity: Non-Toxic

From ChEMBL document CHEMBL4417624, “Small molecule c-myc inhibitors” (2016)
